Experimental data taken from patent publication US6066642A, “Dihydropyridine-, pyridine-, benzopyran-4-one- and triazoloquinazoline derivative, their preparation and their use as adenosine receptor antagonists” (priority 1998, dated 2000).
Read-outs that look alike come from different tables or passages of the source. Blank lines part the entries; values can stand above or below the compound they belong to.

Columns and labels:
A2a receptors = molecular target: T1, A2a receptors (Rattus norvegicus, UniProt P30543); assay: radioligand binding, displacement of specific [3H]CGS 21680 binding in rat striatal membranes; settings: for inhibition at 100 µM: 10^-4 M, read-out: displacement of specific binding rA2a
T1 construct: Displacement of specific [^3 H]; from tissue; host or cells: rat striatal membranes
Method: ^b Displacement of specific [^3 H]
or as a percentage of specific binding displaced at 100 μM.

A1 receptors = molecular target: T2, A1 receptors (Rattus norvegicus, UniProt P25099); assay: biochemical; format: binding; settings: for Ki: rat brain membranes; for inhibition at 100 µM: 10^-4 M, read-out: displacement of specific binding rA1
T2 sequence (P25099 1-326): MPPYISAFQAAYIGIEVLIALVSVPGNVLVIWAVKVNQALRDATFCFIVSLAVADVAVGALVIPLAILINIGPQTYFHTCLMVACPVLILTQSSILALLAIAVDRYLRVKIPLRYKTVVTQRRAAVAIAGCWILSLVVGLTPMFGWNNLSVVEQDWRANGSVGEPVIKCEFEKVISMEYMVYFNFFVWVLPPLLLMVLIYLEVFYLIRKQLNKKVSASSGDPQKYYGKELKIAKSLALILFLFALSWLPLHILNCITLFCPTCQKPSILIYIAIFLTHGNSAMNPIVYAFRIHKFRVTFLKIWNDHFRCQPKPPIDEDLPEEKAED
Method: ^a Displacement of specific [^3 H] PIA binding in rat brain
percentage of specific binding displaced at 100 μM.

human A3 receptors = molecular target: T3, human A3 receptors (Homo sapiens, UniProt P0DMS8); assay: radioligand binding, displacement of specific [125I]AB-MECA binding at human A3 receptors expressed in HEK-293 cells; settings: for Ki: [125I]AB-MECA, read-out: Ki hA3; for inhibition at 10 µM: 10^-5 M; for inhibition at 100 µM: 10^-4 M
T3 construct: expressed in transfected cells; host or cells: HEK-293 cells (membranes)
T3 sequence (P0DMS8 1-318): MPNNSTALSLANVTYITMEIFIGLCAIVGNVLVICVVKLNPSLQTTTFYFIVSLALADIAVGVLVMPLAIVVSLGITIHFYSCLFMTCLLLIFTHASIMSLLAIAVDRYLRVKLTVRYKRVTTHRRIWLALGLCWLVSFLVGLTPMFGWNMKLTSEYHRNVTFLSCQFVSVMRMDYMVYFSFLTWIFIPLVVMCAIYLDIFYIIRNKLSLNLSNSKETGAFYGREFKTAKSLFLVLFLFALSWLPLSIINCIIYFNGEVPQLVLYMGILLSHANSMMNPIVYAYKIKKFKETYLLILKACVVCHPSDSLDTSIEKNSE
Method: A3 receptors expressed in HEK293 cells, in membranes, expressed as
binding displaced at 100 μM.

[1] = Table 15, [3H]CGS 21680, rat striatal membranes, read-out: Ki rA2A
[2] = Table 15, [3H]PIA, read-out: Ki rA1
[3] = Table 9, [3H]CGS 21680, rat striatal membranes, read-out: Ki rA2A
[4] = Table 9, [3H]PIA, read-out: Ki rA1
[5] = Table 3, [3H]PIA, read-out: Ki rA1
[6] = Table 6, [3H]PIA, read-out: K2 (rA1)
[7] = Table 6, read-out: % inhibition hA3

T1 sequence (P30543 whole entry): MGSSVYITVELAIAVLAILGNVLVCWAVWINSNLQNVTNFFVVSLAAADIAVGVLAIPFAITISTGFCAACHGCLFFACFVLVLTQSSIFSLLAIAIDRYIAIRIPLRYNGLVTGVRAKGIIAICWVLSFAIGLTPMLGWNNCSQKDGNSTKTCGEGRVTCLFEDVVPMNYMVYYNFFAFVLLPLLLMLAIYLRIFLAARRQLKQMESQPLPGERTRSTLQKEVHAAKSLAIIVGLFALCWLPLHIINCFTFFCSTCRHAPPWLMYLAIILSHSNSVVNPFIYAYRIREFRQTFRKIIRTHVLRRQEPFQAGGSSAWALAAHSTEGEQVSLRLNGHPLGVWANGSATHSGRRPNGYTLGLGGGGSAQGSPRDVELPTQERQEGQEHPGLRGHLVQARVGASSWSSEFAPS

SMILES: CCCCC(=O)Nc1nc2ccc(Cl)cc2c2nc(-c3ccco3)nn12 [Compound 148, 9-Chloro-2-(2-furyl)-5-pentanoylamino[1,2,4]triazolo[1,5-c]quinazoline]
Ki (A2a receptors; [1]): 16 nM
Ki (A1 receptors; [2]): 28.9 ± 3.7 nM
Ki (human A3 receptors; Table 15, HEK membranes): 21.5 ± 6.2 nM
rA1/hA3 (human A3 receptors; Table 15, ratio of Ki): 1.3

SMILES: COc1cc(OC)c(-c2oc3ccccc3c(=O)c2O)c(OC)c1 [Compound 9, reference compound]
inhibition at 100 µM (A2a receptors; Table 3): < 10%
Ki (A1 receptors; [5]): 7320 ± 1360 nM
Ki (human A3 receptors; Table 3, HEK-293 membranes): 50100 ± 7800 nM
rA1/hA3 (human A3 receptors; Table 3, ratio of Ki): 0.15

SMILES: O=c1cc(-c2ccccc2)oc2c1ccc1ccccc12 [Compound 43, α-naphthoflavone, reference compound]
Ki (A2a receptors; Table 7, [3H]CGS 21680, rat striatal membranes, read-out: Ki (rA2A)): 1320 ± 430 nM
Ki (A1 receptors; Table 7, [3H]PIA, read-out: Ki (rA1)): 786 nM
inhibition at 10 µM (human A3 receptors; Table 7, read-out: % of specific binding displaced hA3): 71 ± 2%

SMILES: CCCOc1cc(OCCC)c2c(=O)c(OCCC)c(-c3ccccc3)oc2c1 [Compound 4, 3,5,7-Tripropyloxyflavone]
Ki (A1 receptors; [5]): 1100 ± 200 nM
Ki (human A3 receptors; Table 3, HEK-293 membranes): 317 nM

SMILES: COc1ccc(-c2cc(=O)c3ccc(O)cc3o2)cc1OC [Compound 27, reference compound]
Ki (A2a receptors; Table 6, [3H]CGS 21680, rat striatal membranes, read-out: K2 (rA2a)): 35400 ± 7300 nM
Ki (A1 receptors; [6]): 18800 ± 3600 nM
inhibition at 100 µM (human A3 receptors; [7]): 32 ± 4%

SMILES: COc1c(O)cc2oc(-c3ccc(O)cc3)cc(=O)c2c1O [Compound 32, hispidulin, reference compound]
Ki (A2a receptors; striatal membranes, read-out: K2 (rA2a)): 6480 ± 650 nM
Ki (A1 receptors; [6]): 1610 ± 290 nM
inhibition at 10 µM (human A3 receptors; [7]): 63 ± 2%

SMILES: COc1ccc2oc(C#Cc3ccccc3)c(O)c(=O)c2c1 [Compound 10, 2-phenylacetylenyl-3-hydroxy-6-methoxyflavone]
inhibition at 100 µM (A2a receptors; Table 3): < 10%
inhibition at 100 µM (A1 receptors; Table 3): < 10%
rA1/hA3 (human A3 receptors): > 8

Continued, in another order:

Ki (A2a receptors; [1]): > 1000 nM
Ki (A1 receptors; [2]): > 1000 nM
Ki (human A3 receptors; Table 15, HEK membranes): 856 ± 156 nM
SMILES: O=C(Nc1nc2ccc(Cl)cc2c2nc(-c3ccc(Br)o3)nn12)c1ccccc1 [Compound 156]

Ki (A2a receptors; [3]): 38300 ± 7900 nM
Ki (A1 receptors; [4]): 5390 ± 330 nM
Ki (human A3 receptors; Table 9, HEK membranes): 940 ± 700 nM
SMILES: CCOC(=O)C1=C(C)NC(C)=C(C(=O)OC)C1C#Cc1ccccc1 (stereo not drawn) [Compound 76]
greater affinity to A1 than A2a adenosine receptors (A1 receptors; selectivity in words): greater affinity to A1 adenosine receptors than A2a receptors
greater affinity for A3 than A1 or A2a adenosine receptors (human A3 receptors; selectivity in words): greater affinity for A3 adenosine receptors than A1 or A2a adenosine receptors

Ki (A2a receptors; Table 16, [3H]CGS 21680, rat striatal membranes, read-out: Ki rA2A): 59.8 ± 13.4 nM
Ki (A1 receptors; Table 16, [3H]R-PIA, read-out: Ki rA1): 282 ± 71 nM
Ki (human A3 receptors; Table 16, HEK membranes): 60 ± 6.3 nM
SMILES: O=C(C=Cc1ccccc1)Nc1nc2ccc(Cl)cc2c2nc(-c3ccco3)nn12 [Compound 161]

Ki (A2a receptors; Table 10, [3H]CGS 21680, rat striatal membranes, read-out: Ki rA2a): 8960 ± 930 nM
Ki (A1 receptors; Table 10, [3H]PIA, read-out: Ki rA1): 6950 ± 2660 nM
Ki (human A3 receptors; Table 10, HEK membranes): 29500 ± 2100 nM
SMILES: CCOC(=O)c1c(C)nc(C)c(C(=O)OC)c1C [Compound 80]

Ki (A2a receptors; [1]): 4000 nM
Ki (A1 receptors; [2]): 3000 nM
Ki (human A3 receptors; Table 15, HEK membranes): 260 ± 87 nM
SMILES: O=c1[nH]c2ccc(Cl)cc2c2nc(-c3ccco3)nn12 [Compound 158, 9-Chloro-2-(2-furyl)[1,2,4]triazolo[1,5-c]quinazolin-5-(6H)-one]

inhibition at 100 µM (A2a receptors; Table 6): < 10%
inhibition at 100 µM (A1 receptors; Table 6): < 10%
inhibition at 10 µM (human A3 receptors; [7]): 69 ± 7%
SMILES: COc1ccc(-c2cc(=O)c3c(O)cc(OC)cc3o2)cc1 [Compound 30, reference compound]

inhibition at 100 µM (A2a receptors; Table 5): < 10%
inhibition at 100 µM (A1 receptors; Table 5): < 10%
inhibition at 100 µM (human A3 receptors; Table 5, read-out: displacement of specific binding hA3): < 10%
SMILES: COc1c2ccoc2cc2oc(/C=C/C=Cc3ccccc3)cc(=O)c12 [Compound 22, 4-methoxy-7-phenylbutadienyl visnagin]

Ki (A2a receptors; [3]): 5270 nM
Ki (A1 receptors; [4]): 3660 nM
Ki (human A3 receptors; Table 9, HEK membranes): 4580 nM
SMILES: CCOC(=O)C1=C(C)NC(C)=C(C(=O)OC)C1c1ccc2c(c1)OCO2 (racemic) [Compound 73, 3-methyl-5-ethyl-2,6-dimethyl-4-[3,4-(methylenedioxy)phenyl]-1,4(R,S)-dihydropyridine-3,5-dicarboxylate]
